Source: patent US10201523B2, “Use of wilforlide A for overcoming chemotherapy resistance” (WESTERN UNIVERSITY OF HEALTH SCIENCES, priority 2013, dated 2019)
Several values for one entry are separate records, joined by “and”; a condition that tells them apart may be missing. Equal values may be shown once.

Test system: Bt474-TxR
Test: SRB cell viability assay, lapatinib with/without wilforlide A pretreatment
Assay type: cell-based
[1] = Lapatinib 0.067 μM, 72 h, no wilforlide A pretreatment, Table 25
[2] = Lapatinib 0.2 μM, 72 h, pretreated with 25 μg/ml wilforlide A for 2 h, Table 26
[3] = Lapatinib 0.67 μM, 72 h, no wilforlide A pretreatment, Table 27
[4] = Lapatinib 0.67 μM, 72 h, pretreated with 25 μg/ml wilforlide A for 2 h, Table 26
[5] = Lapatinib 2.0 μM, 72 h, no wilforlide A pretreatment, Table 25
[6] = Lapatinib 2.0 μM, 72 h, no wilforlide A pretreatment, Table 27
[7] = Lapatinib 2.0 μM, 72 h, pretreated with 25 μg/ml wilforlide A for 2 h, Table 26
[8] = Lapatinib 6.7 μM, 72 h, no wilforlide A pretreatment, Table 25

## CS(=O)(=O)CCNCc1ccc(-c2ccc3ncnc(Nc4ccc(OCc5cccc(F)c5)c(Cl)c4)c3c2)o1 [lapatinib]
72 h, Bt474-TxR, wilforlide A 2.5 μg/ml pre-Tx, lapatinib 0.001 μM 72 h
  viability at 0.001 µM: 100%
72 h, Bt474-TxR, wilforlide A 2.5 μg/ml pre-Tx, lapatinib 0.01 μM 72 h
  viability at 0.01 µM: 103%
72 h, Bt474-TxR, wilforlide A 2.5 μg/ml pre-Tx, lapatinib 0.067 μM 72 h
  viability at 0.067 µM: 96.1%
72 h, Bt474-TxR, wilforlide A 2.5 μg/ml pre-Tx, lapatinib 0.2 μM 72 h
  viability at 0.2 µM: 84.8%
72 h, Bt474-TxR, wilforlide A 2.5 μg/ml pre-Tx, lapatinib 0.67 μM 72 h
  viability at 0.67 µM: 76%
72 h, Bt474-TxR, wilforlide A 2.5 μg/ml pre-Tx, lapatinib 2.0 μM 72 h
  viability at 2 µM: 67.4%
72 h, Bt474-TxR, wilforlide A 2.5 μg/ml pre-Tx, lapatinib 6.7 μM 72 h
  viability at 6.7 µM: 70.2%
72 h, Bt474-TxR, wilforlide A 2.5 μg/ml pre-Tx, lapatinib 20 μM 72 h
  viability at 20 µM: 60.9%
Bt474-TxR, wilforlide A 2.5 μg/ml pre-Tx, lapatinib 0.001 μM 72 h
  mean A: 1.260
Bt474-TxR, wilforlide A 2.5 μg/ml pre-Tx, lapatinib 0.001 μM 72 h, background = 0.045
  A at 565 nm: 1.301 and 1.370
Bt474-TxR, wilforlide A 2.5 μg/ml pre-Tx, lapatinib 0.01 μM 72 h
  mean A: 1.293
Bt474-TxR, wilforlide A 2.5 μg/ml pre-Tx, lapatinib 0.01 μM 72 h, background = 0.045
  A at 565 nm: 1.309 and 1.368
Bt474-TxR, wilforlide A 2.5 μg/ml pre-Tx, lapatinib 0.067 μM 72 h, background = 0.045
  A at 565 nm: 1.297
Bt474-TxR, wilforlide A 2.5 μg/ml pre-Tx, lapatinib 0.67 μM 72 h
  mean A: 0.957
Bt474-TxR, wilforlide A 2.5 μg/ml pre-Tx, lapatinib 0.67 μM 72 h, background = 0.045
  A at 565 nm: 0.898 and 0.975
Bt474-TxR, wilforlide A 2.5 μg/ml pre-Tx, lapatinib 2.0 μM 72 h
  mean A: 0.849
Bt474-TxR, wilforlide A 2.5 μg/ml pre-Tx, lapatinib 2.0 μM 72 h, background = 0.045
  A at 565 nm: 0.895 and 0.791 and 0.861
Bt474-TxR, wilforlide A 2.5 μg/ml pre-Tx, lapatinib 6.7 μM 72 h
  mean A: 0.884
Bt474-TxR, wilforlide A 2.5 μg/ml pre-Tx, lapatinib 6.7 μM 72 h, background = 0.045
  A at 565 nm: 0.947 and 0.814 and 0.893
Bt474-TxR, wilforlide A 2.5 μg/ml pre-Tx, lapatinib 20 μM 72 h
  mean A: 0.768
Bt474-TxR, wilforlide A 2.5 μg/ml pre-Tx, lapatinib 20 μM 72 h, background = 0.045
  A at 565 nm: 0.798 and 0.689 and 0.817
Lapatinib 0.001 μM, 72 h, no wilforlide A pretreatment, Table 25
  viability at 0.001 µM: 100%
Lapatinib 0.001 μM, 72 h, no wilforlide A pretreatment, Table 25, background = 0.045
  A at 565 nm: 1.272 and 1.341
Lapatinib 0.001 μM, 72 h, no wilforlide A pretreatment, Table 27
  viability at 0.001 µM: 100%
Lapatinib 0.001 μM, 72 h, pretreated with 25 μg/ml wilforlide A for 2 h, Table 26
  viability at 0.001 µM: 100%
Lapatinib 0.01 μM, 72 h, no wilforlide A pretreatment, Table 25
  mean A: 1.338
Lapatinib 0.01 μM, 72 h, no wilforlide A pretreatment, Table 25, background = 0.045
  A at 565 nm: 1.352 and 1.344 and 1.318
Lapatinib 0.01 μM, 72 h, no wilforlide A pretreatment, Table 27
  viability at 0.01 µM: 99.5%
Lapatinib 0.01 μM, 72 h, pretreated with 25 μg/ml wilforlide A for 2 h, Table 26
  viability at 0.01 µM: 96.2%
[1]
  mean A: 1.304
  viability at 0.067 µM: 105%
Lapatinib 0.067 μM, 72 h, no wilforlide A pretreatment, Table 25, background = 0.045
  A at 565 nm: 1.320 and 1.343
Lapatinib 0.067 μM, 72 h, no wilforlide A pretreatment, Table 27
  viability at 0.067 µM: 98.7%
Lapatinib 0.067 μM, 72 h, pretreated with 25 μg/ml wilforlide A for 2 h, Table 26
  viability at 0.067 µM: 94.6%
Lapatinib 0.2 μM, 72 h, no wilforlide A pretreatment, Table 25
  viability at 0.2 µM: 92.8%
Lapatinib 0.2 μM, 72 h, no wilforlide A pretreatment, Table 27
  viability at 0.2 µM: 94%
[2]
  mean A: 0.994
  viability at 0.2 µM: 86.6%
Lapatinib 0.2 μM, 72 h, pretreated with 25 μg/ml wilforlide A for 2 h, Table 26, background = 0.047
  A at 565 nm: 0.963
Lapatinib 0.67 μM, 72 h, no wilforlide A pretreatment, Table 25
  viability at 0.67 µM: 87%
[3]
  mean A: 0.994
  viability at 0.67 µM: 85%
Lapatinib 0.67 μM, 72 h, no wilforlide A pretreatment, Table 27, background = 0.047
  A at 565 nm: 0.955
[4]
  mean A: 0.872
  viability at 0.67 µM: 76%
Lapatinib 0.67 μM, 72 h, pretreated with 25 μg/ml wilforlide A for 2 h, Table 26, background = 0.047
  A at 565 nm: 0.813 and 0.937 and 0.865
[5]
  mean A: 0.987
  viability at 2 µM: 79.1%
Lapatinib 2.0 μM, 72 h, no wilforlide A pretreatment, Table 25, background = 0.045
  A at 565 nm: 0.951
[6]
  mean A: 0.831
  viability at 2 µM: 71%
Lapatinib 2.0 μM, 72 h, no wilforlide A pretreatment, Table 27, background = 0.047
  A at 565 nm: 0.887 and 0.809 and 0.797
[7]
  mean A: 0.832
  viability at 2 µM: 72.5%
Lapatinib 2.0 μM, 72 h, pretreated with 25 μg/ml wilforlide A for 2 h, Table 26, background = 0.047
  A at 565 nm: 0.876 and 0.831 and 0.789
[8]
  mean A: 0.925
  viability at 6.7 µM: 74.2%
Lapatinib 6.7 μM, 72 h, no wilforlide A pretreatment, Table 25, background = 0.045
  A at 565 nm: 0.926 and 0.823
Lapatinib 6.7 μM, 72 h, no wilforlide A pretreatment, Table 27
  mean A: 0.795
